Source: patent US11180510B2, “Xanthine derivatives and uses thereof as inhibitors of bromodomains of BET proteins” (Centre national de la recherche scientifique, priority 2017, dated 2021)
pIC50, pKd: −log10 of the molar value. Entries after “also recorded” stand apart in the source; their conditions may differ.

What was measured:
BRD4(BD1) [1] = biological target: T1, BRD4(BD1) (Homo sapiens, UniProt O60885); assay: HTRF assay, BRD4(BD1)/histone peptide interaction; type: binding; set-up: made in house
Jurkat cells = assay: Cell Titer-Glo cell viability assay, Jurkat; type: cell-based; settings: Homo sapiens, 72 h, mean of three experiments, NA = IC50 > maximal concentration used
Description: The human leukemia cell line Jurkat (ATCC® TIB-152) and Molm14 was maintained in RPMI-1640 medium or MEMα, respectively and supplemented both with 10% FBS at 37° C. and 5% CO2.
In antiproliferative assays, compounds were assayed for their growth inhibiting activity towards the described cancer cell lines using the Cell Titer-Glo Luminescent Cell Viability Assay as described by the manufacturer (Promega Corporation). Briefly, 10.000 cells were plated onto 96 well-plates (white with clear bottom (3610, Corning Costar)) in 90 μL media per well immediately before assay. 10 μL of compounds were added at different concentrations (ranging from 50 μM to 6 nM) to each well and cell cultures were incubated 37° C. during 72 h. Vehicle (DMSO) was used as negative control, JQ1 (a pan-BET inhibitor) was used as positive control and all compounds were tested in constant percentage of DMSO (1%). After addition of 50 μL Cell Titer-GLO, shaking 2 minutes and incubating at room temperature 10 minutes, the Luminescence was measured using a Centro luminometer LB960 (Berthold). Dose-response curves were generated and effective dose 50 values (EC50) were calculated using non-linear regression analysis (Graph Pad Prism).

Brd2(BD1) = biological target: T2, Brd2(BD1) (Homo sapiens, UniProt P25440); assay: HTRF BET selectivity profile, Brd2(BD1); type: binding
T2 construct: GST tagged bromodomain proteins were purchased from BPS Bioscience; purchased BPS Bioscience

61 bromodomains = assay: Thermal shift assay selectivity profile on 61 bromodomains; type: binding; settings: compound at 25 μM, 25 µM
Description: (§1) FIG. 3. Thermal Shift Assay (TSA) of 43c. The evaluation was performed on 61 bromodomains. A cut-off at +/−3.5° C. was set.
(§2) TSA “Bromoscan” assays (Reaction Biology) were performed in 384 well RT-PCR plate (BioRad) with a total working volume of 15 μL. The “BromoMelT™, containing the 61 GST- or His-tagged-bromodomains, SYPRO® Orange and a mix compounds as control, was purchased from Reaction Biology. For each point, 3 μL of protein (1×) and 12 μL master mix (buffer+SYPRO® Orange+compound at 25 μM or control mix compounds or DMSO (0.5%)) were mixed in plate. The plate was placed in a CFX384 RTQPC (BioRad), and heated 10 seconds at 25° C., then the temperature was increased from 25° C. to 90° C., by increment of 0.5° C. every 30 seconds. The fluorescence was recorded using FRET filters.

Brd3(BD2) = biological target: T3, Brd3(BD2) (Homo sapiens, UniProt Q15059); assay: HTRF BET selectivity profile, Brd3(BD2); type: binding
T3 construct: GST tagged bromodomain proteins were purchased from BPS Bioscience; purchased BPS Bioscience
How it was run: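 HTRF peptide-displacement assay with GST-tagged bromodomains and histone peptide, 0.5% final DMSO, incubated 3 h, 6 h or overnight at room temperature or 4 °C depending on bromodomain. 665/620 nm ratio read; inhibition scaled between DMSO and no-peptide controls, IC50 in triplicate.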

c-Myc = c-Myc HTRF, CEM cell line; type: cell-based
Description: For additional evaluation of the effect of 43c in cell assays, an influence of the molecule on c-Myc expression was determined by c-Myc HTRF. c-Myc is a proto-oncogene that is often overexpressed in cancer. This leads to the increased expression of many genes, involved in cell proliferation, contributing to cancer development. Downregulation of c-Myc is considered as a promising approach for anticancer treatment.

BRD4(BD1) [2] = biological target: T1, BRD4(BD1); assay: Thermal shift assay (BromoMELT), Brd4 (BD1); type: binding; settings: compound at 25 μM, cut-off +/−3.5° C.
Description: as §1, §2

BRD4(BD1) [3] = biological target: T1, BRD4(BD1); assay: BROMOscan assays; type: binding
Brd3(BD1) = Brd3(BD1) (Homo sapiens, UniProt Q15059); assay: Thermal shift assay (BromoMELT), Brd3 (BD1); type: binding; set-up: containing the 61 GST- or His-tagged-bromodomains; purchased Reaction Biology; settings: compound at 25 μM, cut-off +/−3.5° C.
Description: as §1, §2

T2 sequence (P25440 74-180 limits assumed): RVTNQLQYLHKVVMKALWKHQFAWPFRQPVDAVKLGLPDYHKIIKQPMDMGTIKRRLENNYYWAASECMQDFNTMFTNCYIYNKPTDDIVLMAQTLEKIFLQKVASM
T3 sequence (Q15059 306-415 limits assumed): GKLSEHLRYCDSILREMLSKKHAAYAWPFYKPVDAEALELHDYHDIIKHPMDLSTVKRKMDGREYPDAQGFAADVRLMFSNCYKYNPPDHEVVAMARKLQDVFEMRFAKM
Chain of Brd3(BD1) (Q15059 34-140 limits assumed): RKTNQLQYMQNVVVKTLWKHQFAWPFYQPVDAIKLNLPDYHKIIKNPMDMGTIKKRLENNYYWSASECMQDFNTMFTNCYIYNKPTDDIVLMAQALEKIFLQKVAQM

## CCn1cnc2c1c(=O)[nH]c(=O)n2Cc1ccc(CNS(=O)(=O)c2ccc(OC3CCOCC3)c(F)c2)cc1 [Compound 43c]
BRD4(BD1) [1]; HTRF, mean of three experiments, NA = IC50 > 50 μM, read-out: Brd4(8D1) IC50
  pIC50: 7.13
BRD4(BD1) [1]; selectivity Brd4(BD1) vs Brd4(BD2), HTRF IC50
  Ratio 4-1 vs 4-2: 31
Jurkat cells
  pIC50: 4.75
Brd2(BD1); read-out: Brd2(BD1) IC50
  pIC50: 6.74
Brd2(BD1); selectivity Brd2(BD1) vs Brd2(BD2), HTRF IC50
  Ratio 2-1 vs 2-2: 7
61 bromodomains
  Bromodomain selectivity profile by thermal shift assay: stabilize only BET proteins; also recorded: stabilizes only BRD4 (BD1) and BRD3 (BD1)
Brd3(BD2)
  pIC50: 5.66
c-Myc
  concentration at which c-Myc is downregulated, CEM: 2.6 µM
BRD4(BD1) [2]
  ΔTm at 25 µM: 5.25 °C
BRD4(BD1) [3]
  pKd: 7.49
  selectivity ratio to the first bromodomain, BROMOscan: up to 313 fold
Brd3(BD1)
  ΔTm at 25 µM: 4.5 °C
